Assay results from patent publication EP1298214A2, “Plant thioesterases” (Calgene LLC, priority 1990, dated 1991).

Assays:
[1] = test system: Cuphea C10 acyl-ACP thioesterase; experiment: Cuphea thioesterase substrate specificity at the hydroxyapatite stage (Example 9A); format: biochemical, Cuphea hookeriana; conditions: hydroxyapatite stage in purification
Method: Following the same general procedures as outlined in Example 1, to assay for C10 thioesterase activity, the following mixture is incubated at 30° for 10-60 min: 50µl sample to be tested in the same or similar "extraction buffer" described in Example 9A, and approximately 250pmol of [^14C]-radiolabeled acyl-ACP substrate, (usually decanoyl-ACP is labeled in the carboxylate group to 50-60µCi/µmol) in a total volume of […], for a final decanoyl-ACP concentration of 0.5-5.0µM, typically 5.0µM. The reaction is stopped by adding 0.5ml 10% (v/v) cold (4°) acetic acid and placing the reaction mixture on ice for a few minutes. The fatty acid product of the hydrolytic enzyme action is extracted away from the unhydrolyzed substrate by adding 2ml diethyl ether and mixing vigorously. The ether is transferred to 5ml scintillation fluid for scintillation counting. Additional ether extracts may be performed to recover remaining traces of product for more accurate quantitation of the activity if desired.
The resulting preparation is then subjected to hydroxyapatite column chromatography. The following method applies to ammonium sulfate fraction from 100g fresh weight of starting seed tissue. The dialyzed ammonium sulfate fraction (35-40ml) is applied to a column of hydroxyapatite (2.5cm x 14cm bed height of Bio-Gel HTP from Bio-Rad Inc.; Richmond, CA, catalog no. 130-0420), equilibrated in 50mM KH2PO4-KOH pH 6.9, 10% (v/v) glycerol, 4mM 2-mercaptoethanol. The column is then washed (flow rate 1.5ml/min throughout) with 280ml of the same buffer. Elution is accomplished with a 580ml linear gradient from these conditions to 350mM KH2PO4-KOH pH 6.9, 10% (v/v) glycerol, 4mM 2-mercaptoethanol, collecting fractions of 12ml volume. The eluted fractions are assayed for hydrolase activity using decanoyl-ACP as substrate. […]
The substrate specificity of Cuphea C10 acyl-ACP thioesterase towards medium-chain acyl-ACP's has been determined at the hydroxyapatite stage in purification, as described in Example 9A: Table 6

[2] = test system: material which fails to bind the ACP column (Lauroyl-CoA hydrolysis activity); experiment: Substrate hydrolysis (ACP versus CoA) by peak unbound fraction of the ACP column; format: biochemical, Umbellularia californica; conditions: Flow-through (nonbinding) fraction; cpm of ether-extractable product
Method: (§1) To assay for C12 thioesterase activity the following mixture is incubated at 30° for 30 min: "buffer" comprising 7mM KH2PO4-KOH pH 8, 20% v/v glycerol, 1mM dithiothreitol (DTT), 0.1% v/v Triton X100; sample to be tested for activity in the same or similar buffer as the "extraction buffer" described in Example 2; and 5µl of ^14C-radiolabeled lauroyl-ACP substrate for a total volume of 100µl and final lauroyl-ACP concentration of 0.5µM. Lauroyl-ACP substrate is prepared according to the method of Rock et al (Methods in Enzymology (1981) 72:397-403), using ACP prepared from Escherichia coli by the method of Rock and Cronan (Methods in Enzymology (1981) 71:341-351). The laurate is radiolabeled in the carboxylate group at a specific radioactivity of 50-60µCi/µmol.
The reaction is stopped by adding 0.5ml cold (0°) 10% v/v acetic acid. […] After settling for a few minutes the upper ether layer is transferred to 5ml scintillation fluid for determination of radioactivity by liquid scintillation spectrometry. Additional ether extractions may be performed to recover remaining traces of the reaction product for more accurate quantitation of the enzyme activity if desired. The amount of ether-extracted radioactivity is a direct measure of C12-preferring acyl-ACP thioesterase activity, provided the amount of enzyme is not sufficient to hydrolyze more than about 25% of the substrate. […]

[3] = test system: Bay seeds extractable C12-preferring acyl-ACP thioesterase and lauroyl-CoA hydrolysis activity; experiment: Extractable hydrolysis activity at two stages of Bay seed development; format: biochemical, Umbellularia californica; conditions: cpm ether-extractable radioactivity
Method: as §1
The reaction is stopped by adding 0.5ml cold (0°) 10% v/v acetic acid. The fatty acid product of the hydrolytic enzyme action is extracted away from the unhydrolyzed substrate by adding 1ml diethyl ether and mixing vigorously. After settling for a few minutes the upper ether layer is transferred to 5ml scintillation fluid for determination of radioactivity by liquid scintillation spectrometry. Additional ether extractions may be performed to recover remaining traces of the reaction product for more accurate quantitation of the enzyme activity if desired. The amount of ether-extracted radioactivity is a direct measure of C12-preferring acyl-ACP thioesterase activity, provided the amount of enzyme is not sufficient to hydrolyze more than about 25% of the substrate. With greater activity than this the relationship between radioactivity in the ether layer and the quantity of enzyme becomes markedly nonlinear. The enzyme preparation must then be diluted appropriately to bring the activity into the linear range of the assay.
Further evidence that the C12-preferring acyl-ACP thioesterase is involved in the biosynthesis of laurate groups that predominate in the Bay seeds comes from a comparison of the extractable activity of the enzyme at two different stages of seed development. As shown in the following table, Table 5, very young seeds, which contain only long-chain fatty acids and insignificant amounts of laurate, yield much less C12-preferring ACP thioesterase than older seeds that have accumulated significant amounts of laurate. Thus it appears that significant activity of this enzyme is only present when the seeds are accumulating laurate. Additionally, there appears to be much less difference in lauroyl-CoA hydrolysis activity, consistent with their being different enzymes as discussed above in Example 5.

Substance	Hydrolysis Activity (mean) [1] [pmol/min]	Activity on Substrate [2] [cpm]	Hydrolysis / Thioesterase Activity In Assays ([3]; Normal Seeds (2g/cotyledon pair)) [cpm]	Hydrolysis / Thioesterase Activity In Assays ([3]; Young Seeds (0.5g/cotyledon pair)) [cpm]
14:0-ACP	4055	–	–	–
decanoyl-ACP [10:0-ACP]	6950	–	–	–
lauroyl-ACP [12:0-ACP]	1032	300	4704	376
